Assay results as given in publication PMC6202380 (2018).

Tests used:
[1] = tested on: hras-1 (DNA, G4) TCGGGTTGCGGGCGCAGGGCACGGGCG; test: CD spectroscopy; conditions: 100 mM K+; K-100 buffer, pH 7.2, 20 °C; 5 µM DNA, 10 µM ligand
[2] = tested on: 22AG (DNA, G4) AGGGTTAGGGTTAGGGTTAGGG; test: CD spectroscopy; conditions: 100 mM K+; K-100 buffer, pH 7.2, 20 °C; 5 µM DNA, 10 µM ligand
[3] = tested on: F-CEB25^L111-T (DNA, G4) AAGGGTGGGTGGGTGGGT; test: FRET melting; conditions: 1 mM K+, 99 mM Li+; 10 mM LiAsO2Me2, pH 7.2 (K-1); 0.2 µM DNA, 1 µM ligand
[4] = tested on: ^BrU-22AG (DNA, G4, 5-bromouracil (replacing T) at 5, 6, 11, 12, 17, 18) AGGGTTAGGGTTAGGGTTAGGG; test: PAGE of UVA photoadduct; conditions: 100 mM K+; covalent; K-100 buffer, pH 7.2; 5 µM DNA, 25 µM ligand, 365 nm
[5] = tested on: 22AG (DNA, G4) AGGGTTAGGGTTAGGGTTAGGG; test: fluorimetric titration; conditions: 100 mM K+; K-100 buffer, pH 7.2; 2 µM ligand; binding constant could not be determined
[6] = tested on: ds26 (DNA, duplex) CAATCGGATCGAATTCGATCCGATTG; test: fluorimetric titration, independent-site model; conditions: 100 mM K+; 10 mM LiAsO2Me2, pH 7.2 (K-100); 2 µM ligand
[7] = tested on: 22AG (DNA, G4) AGGGTTAGGGTTAGGGTTAGGG; test: fluorimetric titration, independent-site model; conditions: 2 µM ligand
[8] = tested on: CEB25^WT (DNA, G4) AAGGGTGGGTGTAAGTGTGGGTGGGT; test: fluorimetric titration, independent-site model; conditions: 100 mM K+; K-100 buffer, pH 7.2; 2 µM ligand; Table 2 prints 0.54, text gives 0.54 to CEB25^L111
[9] = tested on: bcl2Mid (DNA, G4) GGGCGCGGGAGGAATTGGGCGGG; test: fluorimetric titration, independent-site model; conditions: 100 mM K+; 10 mM LiAsO2Me2, pH 7.2 (K-100); 2 µM ligand
[10] = tested on: hras-1 (DNA, G4) TCGGGTTGCGGGCGCAGGGCACGGGCG; test: fluorimetric titration, independent-site model; conditions: 100 mM K+; 10 mM LiAsO2Me2, pH 7.2 (K-100); 2 µM ligand
[11] = tested on: 22CTA (DNA, G4) AGGGCTAGGGCTAGGGCTAGGG; test: fluorimetric titration, independent-site model; conditions: 100 mM K+; 10 mM LiAsO2Me2, pH 7.2 (K-100); 2 µM ligand
[12] = tested on: CEB25^L111 (DNA, G4) AAGGGTGGGTGGGTGGGT; test: fluorimetric titration, independent-site model; conditions: 100 mM K+; K-100 buffer, pH 7.2; 2 µM ligand; value from text, Table 2 prints 1.5 for this oligonucleotide
[13] = tested on: Pu24T (DNA, G4) TGAGGGTGGTGAGGGTGGGGAAGG; test: fluorimetric titration, independent-site model; conditions: 100 mM K+; 10 mM LiAsO2Me2, pH 7.2 (K-100); 2 µM ligand

## NCCCN1CCNCc2ccc3cc(ccc3c2)CNCCOCCNCc2ccc3cc(ccc3c2)CNCC1
[1]
  binding: yes
[2]
  binding: yes

## C[n+]1cc(NC(=O)c2ccc3ccc4ccc(C(=O)Nc5cc6ccccc6[n+](C)c5)nc4c3n2)cc2ccccc21
[3]
  ΔT½: 13 °C

## c1cc2ccc3ccc(CCCCNCCN4CCNCc5ccc6cc(ccc6c5)CNCCOCCNCc5ccc6cc(ccc6c5)CNCC4)c4ccc(c1)c2c34
[4]
  binding: yes
[1]
  binding: yes
[5]
  binding: yes

## c1cc2ccc3ccc(CCCCNCCN4CCNCc5ccc6cc(ccc6c5)CNCCN(CCNCCCCc5ccc6ccc7cccc8ccc5c6c78)CCNCc5ccc6cc(ccc6c5)CNCC4)c4ccc(c1)c2c34
[6]
  Ka: 480000 M⁻¹
[7]; 100 mM K+, 10 mM LiAsO2Me2, pH 7.2 (K-100)
  Ka: 1.8e+06 M⁻¹
[7]; 100 mM Na+, 10 mM LiAsO2Me2, pH 7.2 (Na-100)
  Ka: 1.4e+06 M⁻¹
[4]
  binding: yes
[8]
  Ka: 0.54 10^6 M^-1
[9]
  Ka: 1.8e+06 M⁻¹
[3]
  ΔT½: 11 °C
[10]
  Ka: 1.1e+06 M⁻¹
[11]
  Ka: 3.9e+06 M⁻¹
[12]
  Ka: 540000 M⁻¹
[13]
  Ka: 1.5e+06 M⁻¹

## NCCN(CCN)CCNCCCCc1ccc2ccc3cccc4ccc1c2c34
[1]
  binding: yes
[2]
  binding: yes
